Assay results: PubChem BioAssay (NCI)
Several values for one entry are separate records, joined by “and”; a condition that tells them apart may be missing. Identical values can stand only once.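 A five-concentration, 48-hour dose response in 96-well plates underlies each endpoint, interpolated linearly between surrounding concentrations. The concentration for 50% growth inhibition is given as GI50. The concentration for full growth arrest is given as TGI.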

What was measured:
Assay in all cases: inhibition of tumour cell growth, NCI panel, 48 h
[1] = system: TK-10 renal
[2] = system: SF-539 CNS
[3] = system: HCT-116 colon
[4] = system: T-47D breast
[5] = system: SN12C renal
[6] = system: HCT-15 colon
[7] = system: IGROV1 ovarian
[8] = system: MALME-3M melanoma
[9] = system: SK-MEL-5 melanoma
[10] = system: OVCAR-3 ovarian

Compound	GI50 [1] [µM]	TGI [1]	GI50 [2] [µM]	TGI [2]	GI50 [3] [µM]	TGI [3] [µM]	GI50 [4] [µM]	TGI [4]	GI50 [5] [µM]	TGI [5] [µM]	GI50 [6] [µM]	TGI [6] [µM]	GI50 [7] [µM]	TGI [7] [µM]	GI50 [8] [µM]	TGI [8] [µM]	GI50 [9] [µM]	TGI [9] [µM]	GI50 [10] [µM]	TGI [10] [µM]
Clc1nc(Cl)nc(Nc2cccc3ccccc23)n1	> 100	> 100 µM	> 100	> 100 µM	47.1	> 100	98.5	> 100 µM	> 100	> 100	96.5	> 100	> 100	> 100	76.9	> 100	67.3	> 100	> 100	> 100
O=C(O)c1ccc(C(=O)O)c2c(C(=O)O)ccc(C(=O)O)c12		> 100 µM		> 100 µM		> 100		> 100 µM		> 100		> 100		> 100		> 100		> 100		> 100
CC(C(=O)O)c1cccc(Oc2ccccc2)c1 (centres undefined)	> 100	> 100 µM	> 100	> 100 µM	> 100	> 100	> 100	> 100 µM	> 100	> 100	> 100	> 100	> 100	> 100	> 100	> 100	> 100	> 100	> 100	> 100
COc1ccc(C(O)(CCC(C)C)C(CN2CCOCC2)c2ccc(Cl)cc2)cc1 (centres undefined)	16.7	31.3 µM	15.4	30.3 µM	4.68	19.1	11.4	26.9 µM	13.4	31.2	10.3	24.1	14.2	54.2	19.1	39.5	13.8	30.9	12.9	26.2
O=C(CNS(=O)(=O)Cc1ccccc1)NNc1ccccc1		> 100 µM		> 25.6 µM		> 100		> 100 µM		> 100		> 100		> 100		> 100		> 100		> 100
COc1ccccc1Nc1ncc(-c2ccccc2)o1	> 25	> 25 µM	> 25	> 25 µM	> 25	> 25	> 25	> 25 µM	> 25	> 25	> 25	> 25	> 25	> 25	> 25	> 25	> 25	> 25	> 25	> 25
C#Cc1nc(Nc2cc(C)[nH]n2)c2ccccc2n1	0.427	2.91 µM	0.189	0.451 µM	0.248	0.951	0.39	2.11 µM	0.236	0.726	0.205	0.474	0.22	0.563	0.295	0.915	0.139	0.28	0.242	0.52
COc1cc(/C=C/C(=O)c2cccc(-n3cc(-c4ccc(Cl)cc4)[nH]c3=O)c2)ccc1O	6.6	> 65.5 µM	1.86	4.05 µM	1.57	3.82	3.39	17.8 µM	2.81	> 60.9	1.8	7.07	2	5.61	5.99	22.2	1.88	5.22	1.56	3.57
CSc1nc(NC2OC(COC(C)=O)C(OC(C)=O)C(OC(C)=O)C2OC(C)=O)c(N=CC=Nc2c(NC3OC(COC(C)=O)C(OC(C)=O)C(OC(C)=O)C3OC(C)=O)nc(SC)n(C)c2=O)c(=O)n1C (centres undefined)	30.7	50 µM and > 97.1 µM		50 µM and 69.3 µM	> 50	> 100	43.2	50 µM and > 100 µM	> 50	> 100	> 50	> 100	> 50	> 100	> 50	> 100	> 50	> 100	> 50	> 50
CN(C)C(=S)Sc1ccc([N+](=O)[O-])cc1[N+](=O)[O-]	2.29	5.85 µM	3.8	14.6 µM	1.54	3.7	1.56	3.75 µM	3.24	11.2	1.46	4.2	1.26	13.1	1.38	3.17	1.73	5.82	0.99	2.49
CCN(Cc1ccc(F)cc1)c1ccc(CO)c(Br)c1	0.021	0.101 µM	15	29.4 µM	0.046	12.6	0.0546	0.296 µM	8.71	23.9	5.8	> 52.6	0.0402	0.202	16.9	38	3.42	19.6	0.238	0.868
COC(=O)C1=CN(CC2=CC(=O)C(C)=CC2=O)C=C(C(=O)OC)C1c1cccc(OC)c1	12.2	25.9 µM	8.25	23.3 µM	3.63	11.1	8.26	> 100 µM	22.9	> 60.5	16.6	39	12.8	> 58.1	6.81	16.1	14.4	42.2	3.51	12.3
